By Ki is commonly meant a measure of affinity in units of concentration, obtained from inhibition or displacement.

For assay [1], the target named is T1, O-GlcNAcase (Homo sapiens, UniProt O60502).
T1 sequence (O60502 1-916): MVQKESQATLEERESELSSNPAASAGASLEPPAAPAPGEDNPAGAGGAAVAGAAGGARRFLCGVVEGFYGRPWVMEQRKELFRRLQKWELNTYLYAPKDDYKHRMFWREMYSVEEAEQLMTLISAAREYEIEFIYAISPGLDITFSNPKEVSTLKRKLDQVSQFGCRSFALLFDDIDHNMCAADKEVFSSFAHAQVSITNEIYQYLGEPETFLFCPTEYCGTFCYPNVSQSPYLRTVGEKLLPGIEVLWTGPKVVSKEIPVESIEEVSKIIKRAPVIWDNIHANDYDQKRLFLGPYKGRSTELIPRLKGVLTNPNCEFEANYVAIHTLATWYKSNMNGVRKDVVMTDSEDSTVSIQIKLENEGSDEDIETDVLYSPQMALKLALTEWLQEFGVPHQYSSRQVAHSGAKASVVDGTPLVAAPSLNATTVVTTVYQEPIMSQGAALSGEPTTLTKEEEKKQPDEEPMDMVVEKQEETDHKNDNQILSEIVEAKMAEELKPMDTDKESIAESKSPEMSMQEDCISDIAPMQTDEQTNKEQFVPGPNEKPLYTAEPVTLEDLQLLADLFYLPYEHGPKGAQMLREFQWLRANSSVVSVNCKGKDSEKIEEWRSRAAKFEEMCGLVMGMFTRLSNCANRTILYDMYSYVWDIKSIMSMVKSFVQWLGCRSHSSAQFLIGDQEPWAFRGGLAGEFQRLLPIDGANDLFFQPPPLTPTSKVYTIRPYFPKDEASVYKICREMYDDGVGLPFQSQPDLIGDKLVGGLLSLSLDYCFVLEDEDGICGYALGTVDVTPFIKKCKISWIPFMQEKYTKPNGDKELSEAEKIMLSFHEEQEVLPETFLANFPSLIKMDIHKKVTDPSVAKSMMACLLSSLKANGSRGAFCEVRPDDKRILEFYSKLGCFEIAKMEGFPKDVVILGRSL
In words: Assay for determination of K1 values for inhibition of O-GlcNAcase activity. In kind it is biochemical. Conditions: pNP-GlcNAc 0.5 mM, PBS buffer pH 7.4, 37° C., Dixon plots. On the procedure:
Assay for Determination of […] for Inhibition of O-GlcNAcase Activity Experimental procedure for kinetic analyses: Enzymatic reactions were carried out in PBS buffer (pH 7.4) using pNP-GlcNAc as a substrate (0.5 mM) and monitored continuously at 37° C. at 400 nm using a Cary 3E UV-VIS spectrophotometer equipped with a Peltier temperature controller. Reactions were pre-heated in a 500 μl, quartz cuvette for approximately 5 minutes followed by addition of 10 μL enzyme via syringe (final enzyme concentration 0.002 mg/mL). Reaction velocities were determined by linear regression of the linear region of the reaction progress curve between the first and third minutes. An inhibitor concentration range of ⅕ to 5 times K1 was used in each case. […] All K1 values are determined using linear regression of Dixon plots.

In assay [2] the test system is 3T3-L1 cells. The experiment in a line: Western blot of cellular levels of O-GlcNAc-modified proteins in 3T3-L1 cells. The class given is cell-based. Conditions: 100 μM, 16 hours, anti-O-GlcNAc mAb CTD110.6, compared to control. As for the experimental part: FIGS. 1A-B show Western blots of proteins from 3T3-L1 cells cultured for 16 hours in the presence or absence of 100 μM of Compound 1 (Table 1). Incubation of 3T3-L1 cells with Compound 1 causes an increase in cellular levels of O-GlcNAc-modified proteins; plus signs (“+”) indicate presence of Compound 1, while minus signs (“−”) indicate absence of Compound 1. FIG. 1A: Western blot analysis of cellular levels of O-GlcNAc-modified proteins using anti-O-GlcNAc MAb CTD 110.6 followed by an anti-mouse IgG-HRP conjugate.
Western Blot Analyses: 3T3-L1 adipocytes were treated with Compound 1 at 100 μM for 16 hours. Cells were harvested by adding 400 μL of 1% SDS with 50 mM beta-ME, boiling this for 10 minutes, using these lysates in subsequent Western blots. Briefly, samples were separated by SDS-PAGE (10% gels), transferred to nitrocellulose membrane (Bio-Rad), blocked for one hour at room temperature (RT) with 1% bovine serum albumin (BSA) in PBS containing 0.1% Tween-20 (PBS-T) and then subsequently probed with the appropriate primary antibody delivered in 1% BSA in PBS-T for overnight at 4° C. […]
For orientation: A western blot detects proteins with antibodies after separation by electrophoresis.

Entries after “also recorded” stand apart in the source; their conditions may differ.

In the case of `CC(=O)N[C@H]1CN2CC[C@H](O)[C@@H]2[C@@H](O)[C@@H]1O` [Compound 1], the affinity in assay [1], expressed as Ki, was 670 nM. Besides, in assay [2], the “cellular levels of O-GlcNAc-modified proteins” value is “Marked increases; also recorded: increase”.

Source of the values: patent publication US8541441B2, “Selective glycosidase inhibitors and uses thereof” (Simon Fraser University, priority 2008, dated 2013).
